According to patent US20240409963A1, “Use of Inhibitors to Increase Efficiency of Crispr/CAS Insertions” (AstraZeneca AB, priority 2021, published 2024):

Assays:
HEK293T cells [1] = assay: Different DNAPK inhibitors on precise gene editing outcomes, Example 8; conditions: for HDR to indel ratio / Precise KI fold increase: gINS + ssDNA; for Precise KI fold increase: vs DMSO; for MMEJ indels Mean / NHEJ indels Mean / Total editing Mean: sgRNA CD34 (gINS) + ssDNA, 70 hours post-transfection;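 on all read-outs here: cells transfected with plasmids for SpCas9-EGFP, editing outcomes quantified from genomic DNA by deep targeted amplicon sequencing with bioinformatic analysis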
Protocol: Cells allowed to attach for 12 hours before transfection. Cells were transfected with DNA plasmids encoding for SpCas9-EGFP and a sgRNAs targeting CD34 (gINS) in the presence of single-stranded oligonucleotide donor (ssDNA). 70 hours post-transfection cell confluence and EGFP-based transfection efficiencies were determined with the Incucyte S3. Genomic DNA was extracted and editing outcome was analysed through deep-targeted amplicon sequencing using bioinformatic analysis.

HEK293T cells [2] = assay: PolQ inhibitor ART558 titration on precise gene editing outcomes, Example 10; format: cell-based; conditions: HEK293T, with 1 μM AZD7648
Protocol: HEK293T cells were seeded into 96-well plates and allowed to attach for 20 hours.

Cc1cc2ncnn2cc1Nc1ncc2c(n1)N(C1CCOCC1)CC(=O)N2C [TLR2, 5-methyl-2-((7-methyl-[1,2,4]triazolo[1,5-a]pyridin-6-yl)amino)-8-(tetrahydro-2H-pyran-4-yl)-7,8 dihydropteridin-6 (5H)-one]
HDR to indel ratio (HEK293T cells [1]; DNAPK inhibitor 0.3125 μM): 0.6 | Precise KI fold increase (HEK293T cells [1]; DNAPK inhibitor 0.3125 μM): 2.3 fold | HDR to indel ratio (HEK293T cells [1]; DNAPK inhibitor 0.625 μM): 0.9 | Precise KI fold increase (HEK293T cells [1]; DNAPK inhibitor 0.625 μM): 2.5 fold | HDR to indel ratio (HEK293T cells [1]; DNAPK inhibitor 1.25 μM): 1.0 | Precise KI fold increase (HEK293T cells [1]; DNAPK inhibitor 1.25 μM): 2.3 fold | HDR to indel ratio (HEK293T cells [1]; DNAPK inhibitor 5 μM): 1.1 | Precise KI fold increase (HEK293T cells [1]; DNAPK inhibitor 5 μM): 2.6 fold | HDR to indel ratio (HEK293T cells [1]; DNAPK inhibitor 10 μM): 1.1 | Precise KI fold increase (HEK293T cells [1]; DNAPK inhibitor 10 μM): 2.1 fold | MMEJ indels Mean (HEK293T cells [1]; DNAPK inhibitor 0.3125 μM): 16.7 | NHEJ indels Mean (HEK293T cells [1]; DNAPK inhibitor 0.3125 μM): 13.5 | Total editing Mean (HEK293T cells [1]; DNAPK inhibitor 0.3125 μM): 62.8 | MMEJ indels Mean (HEK293T cells [1]; DNAPK inhibitor 0.625 μM): 17.1 | NHEJ indels Mean (HEK293T cells [1]; DNAPK inhibitor 0.625 μM): 6.1 | Total editing Mean (HEK293T cells [1]; DNAPK inhibitor 0.625 μM): 56.8 | MMEJ indels Mean (HEK293T cells [1]; DNAPK inhibitor 1.25 μM): 16.0 | NHEJ indels Mean (HEK293T cells [1]; DNAPK inhibitor 1.25 μM): 3.2 | Total editing Mean (HEK293T cells [1]; DNAPK inhibitor 1.25 μM): 49.7 | MMEJ indels Mean (HEK293T cells [1]; DNAPK inhibitor 5 μM): 16.2 | NHEJ indels Mean (HEK293T cells [1]; DNAPK inhibitor 5 μM): 2.1 | Total editing Mean (HEK293T cells [1]; DNAPK inhibitor 5 μM): 50.9 | MMEJ indels Mean (HEK293T cells [1]; DNAPK inhibitor 10 μM): 13.6 | NHEJ indels Mean (HEK293T cells [1]; DNAPK inhibitor 10 μM): 1.8 | Total editing Mean (HEK293T cells [1]; DNAPK inhibitor 10 μM): 42.4

Cc1nccnc1C(O)c1ccc(F)c(-c2ncnc3cc(N4CCOCC4)ccc23)c1 (centres unmarked) [TLR1, (4-fluoro-3-(7-morpholinoquinazolin-4-yl)phenyl) (3-methylpyrazin-2-yl) methanol]
HDR to indel ratio (HEK293T cells [1]; DNAPK inhibitor 0.3125 μM): 0.4 | Precise KI fold increase (HEK293T cells [1]; DNAPK inhibitor 0.3125 μM): 1.9 fold | HDR to indel ratio (HEK293T cells [1]; DNAPK inhibitor 0.625 μM): 0.7 | Precise KI fold increase (HEK293T cells [1]; DNAPK inhibitor 0.625 μM): 2.4 fold | HDR to indel ratio (HEK293T cells [1]; DNAPK inhibitor 1.25 μM): 0.9 | Precise KI fold increase (HEK293T cells [1]; DNAPK inhibitor 1.25 μM): 2.6 fold | HDR to indel ratio (HEK293T cells [1]; DNAPK inhibitor 5 μM): 1.4 | Precise KI fold increase (HEK293T cells [1]; DNAPK inhibitor 5 μM): 2.5 fold | HDR to indel ratio (HEK293T cells [1]; DNAPK inhibitor 10 μM): 1.5 | Precise KI fold increase (HEK293T cells [1]; DNAPK inhibitor 10 μM): 2.0 fold | MMEJ indels Mean (HEK293T cells [1]; DNAPK inhibitor 0.3125 μM): 15.4 | NHEJ indels Mean (HEK293T cells [1]; DNAPK inhibitor 0.3125 μM): 21.6 | Total editing Mean (HEK293T cells [1]; DNAPK inhibitor 0.3125 μM): 66.4 | MMEJ indels Mean (HEK293T cells [1]; DNAPK inhibitor 0.625 μM): 17.3 | NHEJ indels Mean (HEK293T cells [1]; DNAPK inhibitor 0.625 μM): 12.3 | Total editing Mean (HEK293T cells [1]; DNAPK inhibitor 0.625 μM): 63.2 | MMEJ indels Mean (HEK293T cells [1]; DNAPK inhibitor 1.25 μM): 16.9 | NHEJ indels Mean (HEK293T cells [1]; DNAPK inhibitor 1.25 μM): 6.9 | Total editing Mean (HEK293T cells [1]; DNAPK inhibitor 1.25 μM): 58.1 | MMEJ indels Mean (HEK293T cells [1]; DNAPK inhibitor 5 μM): 11.9 | NHEJ indels Mean (HEK293T cells [1]; DNAPK inhibitor 5 μM): 1.7 | Total editing Mean (HEK293T cells [1]; DNAPK inhibitor 5 μM): 44.5 | MMEJ indels Mean (HEK293T cells [1]; DNAPK inhibitor 10 μM): 9.2 | NHEJ indels Mean (HEK293T cells [1]; DNAPK inhibitor 10 μM): 1.3 | Total editing Mean (HEK293T cells [1]; DNAPK inhibitor 10 μM): 34.1

Cc1cccc(N(C)C(=O)[C@@H]2[C@H](O)CCN2c2nc(C)cc(C(F)(F)F)c2C#N)c1 [ART558]
precise knock-in frequencies of the single-stranded oligonucleotide donor (HEK293T cells [2]; concentration-dependent): increases | unprecise DNA repair events (HEK293T cells [2]; with increasing inhibitor concentration): decreases

[2H]c1nc(C)nc([2H])c1-c1cc(NC[C@@H](C)c2cccc3c(C(=O)NC)ccnc23)ncn1
HDR to indel ratio (HEK293T cells [1]; DNAPK inhibitor 0.3125 μM): 0.3 | Precise KI fold increase (HEK293T cells [1]; DNAPK inhibitor 0.3125 μM): 1.5 fold | HDR to indel ratio (HEK293T cells [1]; DNAPK inhibitor 0.625 μM): 0.5 | Precise KI fold increase (HEK293T cells [1]; DNAPK inhibitor 0.625 μM): 2.2 fold | HDR to indel ratio (HEK293T cells [1]; DNAPK inhibitor 1.25 μM): 0.7 | Precise KI fold increase (HEK293T cells [1]; DNAPK inhibitor 1.25 μM): 2.4 fold | HDR to indel ratio (HEK293T cells [1]; DNAPK inhibitor 5 μM): 1.1 | Precise KI fold increase (HEK293T cells [1]; DNAPK inhibitor 5 μM): 2.8 fold | HDR to indel ratio (HEK293T cells [1]; DNAPK inhibitor 10 μM): 1.1 | Precise KI fold increase (HEK293T cells [1]; DNAPK inhibitor 10 μM): 2.7 fold | MMEJ indels Mean (HEK293T cells [1]; DNAPK inhibitor 0.3125 μM): 15.8 | NHEJ indels Mean (HEK293T cells [1]; DNAPK inhibitor 0.3125 μM): 25.0 | Total editing Mean (HEK293T cells [1]; DNAPK inhibitor 0.3125 μM): 66.8 | MMEJ indels Mean (HEK293T cells [1]; DNAPK inhibitor 0.625 μM): 17.8 | NHEJ indels Mean (HEK293T cells [1]; DNAPK inhibitor 0.625 μM): 16.7 | Total editing Mean (HEK293T cells [1]; DNAPK inhibitor 0.625 μM): 66.8 | MMEJ indels Mean (HEK293T cells [1]; DNAPK inhibitor 1.25 μM): 18.1 | NHEJ indels Mean (HEK293T cells [1]; DNAPK inhibitor 1.25 μM): 9.0 | Total editing Mean (HEK293T cells [1]; DNAPK inhibitor 1.25 μM): 60.4 | MMEJ indels Mean (HEK293T cells [1]; DNAPK inhibitor 5 μM): 17.1 | NHEJ indels Mean (HEK293T cells [1]; DNAPK inhibitor 5 μM): 2.4 | Total editing Mean (HEK293T cells [1]; DNAPK inhibitor 5 μM): 55.0 | MMEJ indels Mean (HEK293T cells [1]; DNAPK inhibitor 10 μM): 17.3 | NHEJ indels Mean (HEK293T cells [1]; DNAPK inhibitor 10 μM): 2.0 | Total editing Mean (HEK293T cells [1]; DNAPK inhibitor 10 μM): 53.4
